A word on the IC50: it is the midpoint of a concentration-inhibition curve.

Holding throughout (assay type): biochemical
In assay [1] the target is metalloelastase (MMP12) (Homo sapiens, UniProt P39900). Kind of assay: MMP12 enzyme inhibition assay (fluorogenic peptide substrate McaPLGLDpaAR). The settings on record: protocol as for MMP9 assay. The procedure:
(§1) Stock solutions were made up as follows: • Assay Buffer: 100 mM Tris-HCl pH 7.6 containing 100 mM NaCl, 10 mM CaCl2, and 0.05% Brij 35 • Substrate: 0.4 mM McaPLGLDpaAR (from Bachem) (0.437 mg/ml) stock solution in 100% DMSO (stored at −20° C.). Dilute to 8 μM in assay buffer. • Enzyme: Recombinant human 92 kDa gelatinase (MMP-9; APMA (4-aminophenyl • mercuric acetate)—activated if necessary) appropriately diluted in assay buffer.
(§2) Test Compounds were prepared initially as 10 mM compound solution in 100% DMSO, diluted to 1 mM in 100% DMSO, then serially diluted 3-fold in 100% DMSO across columns 1-10 of a 96-well microtitre plate Assay concentration range, 100 μM (column 1) to 5.1 nM (column 10)
(§3) The assay was performed in a total volume of 100 μl per well in 96-well microtitre plates. Activated enzyme (20 μl) was added to the wells followed by 20 μl of assay buffer. Appropriate concentrations of test compounds dissolved in 10 μl of DMSO were then added followed by 50 μl of McaPLGLDpaAR (8 μM, prepared by dilution of DMSO stock in assay buffer). For each assay ten concentrations of test compound were examined in duplicate. Control wells lack either enzyme or test compound. The reactions were incubated at 37° C. for 2 hours. The fluorescence at 405 nm was measured immediately with an SLT Fluostar fluorometer (SLT Labinstruments GmbH, Grödig, Austria) using 320 nm excitation, without stopping the reaction.
(§4) The effect of the test compound was determined from the dose response curve generated by the 10 duplicate concentrations of inhibitor. The IC50 (the concentration of compound required to give a 50% decrease in enzyme activity) was obtained by fitting data to the equation, Y=a+((b−a)/(1+(c/X)^d)). (Y=inhibition achieved for a particular dose; X=the dose in nM; a=minimum y or zero % inhibition; b=maximum y or 100% inhibition; c=is the IC50; d=is the slope). The result was rounded to one significant figure.
Compounds were tested for inhibitory activity against metalloelastase (MMP12) in an assay using a coumarin-labelled peptide substrate, (7-methoxycoumarin-4-yl)acetyl-Pro-Leu-Gly-Leu-(3-[2,4-dinitrophenyl]-L-2,3-diaminopropionyl)-Ala-Arg-NH2 (McaPLGLDpaAR) (Knight et al, FEBS Lett. 1992; 263-266). The protocol for this assay was as described for the MMP9 assay above.

Assay [2] concerns the target 92 kDa gelatinase (MMP9) (Homo sapiens, UniProt P14780). Kind of assay: MMP9 enzyme inhibition assay (fluorogenic peptide substrate McaPLGLDpaAR). The settings on record: recombinant human 92 kDa gelatinase, 37° C., 2 hours. The procedure:
Compounds were tested for inhibitory activity against 92 kDa gelatinase (MMP9) in an assay using a coumarin-labelled peptide substrate, (7-methoxycoumarin-4-yl)acetyl-Pro-Leu-Gly-Leu-(3-[2,4-dinitrophenyl]-L-2,3-diaminopropionyl)-Ala-Arg-NH2 (McaPLGLDpaAR) (Knight et al, FEBS Lett. 1992; 263-266).
as §1, §2, §3, §4

Assay [3] concerns the target T1, collagenase (MMP1) (Homo sapiens, UniProt P03956).
T1 sequence (P03956 100-469): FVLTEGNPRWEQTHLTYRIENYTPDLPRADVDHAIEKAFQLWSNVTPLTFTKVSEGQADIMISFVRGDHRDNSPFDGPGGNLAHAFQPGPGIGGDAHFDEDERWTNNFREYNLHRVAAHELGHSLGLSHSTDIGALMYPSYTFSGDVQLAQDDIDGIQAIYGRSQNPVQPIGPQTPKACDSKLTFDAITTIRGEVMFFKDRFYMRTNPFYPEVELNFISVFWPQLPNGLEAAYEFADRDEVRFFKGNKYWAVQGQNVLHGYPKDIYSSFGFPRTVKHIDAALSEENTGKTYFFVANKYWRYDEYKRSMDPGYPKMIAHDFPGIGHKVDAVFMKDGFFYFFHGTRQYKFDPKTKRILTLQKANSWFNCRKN
Kind of assay: MMP1 enzyme inhibition assay (fluorogenic peptide substrate McaPLGLDpaAR). Particulars: protocol as for MMP9 assay. The procedure: as §1, §2, §3, §4
• Compounds were tested for inhibitory activity against collagenase (MMP1) in an assay using a coumarin-labelled peptide substrate, (7-methoxycoumarin-4-yl)acetyl-Pro-Leu-Gly-Leu-(3-[2,4-dinitrophenyl]-L-2,3-diaminopropionyl)-Ala-Arg-NH2 (McaPLGLDpaAR) (Knight et al, FEBS Lett. 1992; 263-266). The protocol for this assay was as described for the MMP9 assay above.

SMILES strings stand for the structures. Where only a bound is given, the exact number is not on record here.

Chain of 92 kDa gelatinase (MMP9) (P14780 107-707 limits assumed): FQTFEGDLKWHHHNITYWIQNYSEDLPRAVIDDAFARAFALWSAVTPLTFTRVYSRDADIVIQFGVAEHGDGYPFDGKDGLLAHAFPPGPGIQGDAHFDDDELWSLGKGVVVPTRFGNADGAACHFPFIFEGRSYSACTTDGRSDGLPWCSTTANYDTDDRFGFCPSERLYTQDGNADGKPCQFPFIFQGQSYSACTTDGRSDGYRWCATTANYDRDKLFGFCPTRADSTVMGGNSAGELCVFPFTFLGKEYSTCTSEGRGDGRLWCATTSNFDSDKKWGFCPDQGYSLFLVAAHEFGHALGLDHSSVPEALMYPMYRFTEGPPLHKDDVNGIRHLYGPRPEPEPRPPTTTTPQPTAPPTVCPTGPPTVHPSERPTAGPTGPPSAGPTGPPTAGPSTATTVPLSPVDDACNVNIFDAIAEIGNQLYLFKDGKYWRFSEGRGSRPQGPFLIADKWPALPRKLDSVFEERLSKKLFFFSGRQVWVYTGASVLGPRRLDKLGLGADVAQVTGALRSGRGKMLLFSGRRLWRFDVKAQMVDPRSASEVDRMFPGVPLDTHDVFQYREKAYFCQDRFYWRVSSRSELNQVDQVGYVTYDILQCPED
Chain of metalloelastase (MMP12) (P39900 106-470): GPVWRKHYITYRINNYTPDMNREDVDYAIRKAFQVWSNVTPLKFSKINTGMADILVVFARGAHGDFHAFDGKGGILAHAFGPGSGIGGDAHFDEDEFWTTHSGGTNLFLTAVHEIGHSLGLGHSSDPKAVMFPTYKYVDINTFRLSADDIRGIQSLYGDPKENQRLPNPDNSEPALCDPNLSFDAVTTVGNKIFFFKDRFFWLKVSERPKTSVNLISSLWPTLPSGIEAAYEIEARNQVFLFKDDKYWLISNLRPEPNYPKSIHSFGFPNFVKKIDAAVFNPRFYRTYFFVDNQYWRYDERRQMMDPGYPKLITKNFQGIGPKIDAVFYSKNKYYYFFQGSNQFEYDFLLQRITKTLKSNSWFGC

For `CC(C)C[C@@H](C(=O)N[C@H](c1noc(C2CC2)n1)C(C)(C)C)[C@H](O)C(=O)NO` [Example 16, 2S-Hydroxy-3R-[1S-(5-cyclopropyl-[1,2,4]oxadiazol-3-yl)-2,2-dimethyl-propylcarbamoyl]-5-methyl Hexanohydroxamic Acid], the IC50 was less than 100 nM in assay [1], 100 to 1000 nM in assay [2] and 100 to 1000 nM in assay [3].
In the case of `CC(C)C[C@@H](C(=O)N[C@H](c1noc(CC2CCCC2)n1)C(C)(C)C)[C@H](O)C(=O)NO` [Example 6, 2S-Hydroxy-3R-[1S-(5-cyclopentylmethyl-[1,2,4]oxadiazol-3-yl)-2,2-dimethyl-propylcarbamoyl]-5-methyl Hexanohydroxamic Acid], the IC50 in assay [1] is less than 100 nM; in assay [2] it was 1000 to 10000 nM; in assay [3] it was 100 to 1000 nM.
In the same order, the values of `CC(C)C[C@@H](C(=O)N[C@H](c1nc(C(C)C)no1)C(C)(C)C)[C@H](O)C(=O)NO` [Example 18, 2S-Hydroxy-3R-[1S-(3-isopropyl-[1,2,4]oxadiazol-3-yl)-2,2-dimethyl-propylcarbamoyl]-5-methyl Hexanohydroxamic Acid] are less than 100 nM, 100 to 1000 nM and 100 to 1000 nM.
In the same order, the values of `C=CC[C@H](C(=O)NO)[C@@H](CC(C)C)C(=O)N[C@@H](Cc1ccccc1)c1nc(C(C)C)no1` [Example 21, 2S-Allyl-5-methyl-3R-[2-phenyl-1S-(3-isopropyl-[1,2,4]oxadiazol-5-yl)-ethylcarbamoyl]-hexanohydroxamic Acid] are less than 100 nM, less than 100 nM and 100 to 1000 nM.
The like results for `C=CC[C@H](C(=O)NO)[C@@H](CC(C)C)C(=O)N[C@@H](Cc1ccccc1)c1nc(-c2ccccc2)no1` [Example 20, 2S-Allyl-5-methyl-3R-[2-phenyl-1S-(3-phenyl-[1,2,4]oxadiazol-5-yl)-ethylcarbamoyl]-hexanohydroxamic Acid] were, in that order, less than 100 nM, less than 100 nM and 100 to 1000 nM.
Take `CC(C)C[C@@H](C(=O)N[C@H](c1nc(-c2ccccc2)no1)C(C)C)[C@H](O)C(=O)NO` [Example 19, 2S, N1-Dihydroxy-3R-isobutyl-N4-[2-methyl-1S-(3-phenyl-[1,2,4]oxadiazol-5-yl)-propyl]-succinamide]: the IC50 in assay [1] is less than 100 nM; in assay [2] it was 100 to 1000 nM; in assay [3], 100 to 1000 nM.
Regarding `CC(C)C[C@@H](C(=O)N[C@H](c1noc(C2CCCC2)n1)C(C)(C)C)[C@H](O)C(=O)NO` [Example 9, 2S-Hydroxy-3R-[1S-(5-cyclopentyl-[1,2,4]oxadiazol-3-yl)-2,2-dimethyl-propylcarbamoyl]-5-methyl Hexanohydroxamic Acid], the values for the IC50 in assay [1], in assay [2] and in assay [3] were less than 100 nM, 1000 to 10000 nM and 100 to 1000 nM, respectively.
The like results for `CC(C)(C)[C@H](NC(=O)[C@H](CCCc1cc(C(F)(F)F)cc(C(F)(F)F)c1)[C@H](O)C(=O)NO)c1noc(-c2ccco2)n1` [Example 34, 2R-[3-(3,5-Bis-trifluoromethyl-phenyl)-propyl]-N1-[1S-(5-furan-2-yl-[1,2,4]oxadiazol-3-yl)-2,2-dimethyl-propyl]-3S,N4-dihydroxy-succinamide] were, in that order, greater than 10000 nM, greater than 10000 nM and greater than 10000 nM.
On to `CC(C)(C)[C@H](NC(=O)[C@H](CCCc1cc(C(F)(F)F)cc(C(F)(F)F)c1)[C@H](O)C(=O)NO)c1noc(-c2cccs2)n1` [Example 33, 2R-[3-(3,5-Bis-trifluoromethyl-phenyl)-propyl]-N1-[2,2-dimethyl-1S-(5-thiophen-2-yl-[1,2,4]oxadiazol-3-yl)-propyl]-3S, N4-dihydroxy-succinamide], for which the IC50 in assay [1] is 100 to 1000 nM; in assay [2] it was greater than 10000 nM; in assay [3] it was greater than 10000 nM.
As for `CC(C)C[C@@H](C(=O)N[C@H](c1noc(Cc2ccccc2)n1)C(C)(C)C)[C@H](O)C(=O)NO` [Example 10, 2S-Hydroxy-3R-[1S-(5-benzyl-[1,2,4]oxadiazol-3-yl)-2,2-dimethyl-propylcarbamoyl]-5-methyl Hexanohydroxamic Acid], the concentration for half-maximal inhibition (IC50) in assay [1] is less than 100 nM; in assay [2] it was 1000 to 10000 nM; in assay [3], 1000 to 10000 nM.
Consider `CC(C)C[C@@H](C(=O)N[C@H](c1noc(Cc2cccs2)n1)C(C)(C)C)[C@H](O)C(=O)NO` [Example 7, 2S-Hydroxy-3R-[1S-(5-thiopen-2-ylmethyl-[1,2,4]oxadiazol-3-yl)-2,2-dimethyl-propylcarbamoyl]-5-methyl Hexanohydroxamic Acid], for which the half-maximal inhibitory concentration (IC50) in assay [1] fell in the range of 100 to 1000 nM; in assay [2], 1000 to 10000 nM; in assay [3], 1000 to 10000 nM.
Take `CC(C)C[C@@H](C(=O)N[C@H](c1noc(-c2ccccc2)n1)C(C)(C)C)[C@H](O)C(=O)NO` [Example 1, 3R-[2,2-Dimethyl-1 S-(5-phenyl-[1,2,4]oxadiazol-3-yl)-propylcarbamoyl]-2S-hydroxy-5-methyl-Hexanohydroxamic Acid]: the results for the 50% inhibitory concentration (IC50) in assay [1], in assay [2] and in assay [3] were less than 100 nM, 100 to 1000 nM and 100 to 1000 nM, respectively.
As for `CC(C)C[C@@H](C(=O)N[C@H](c1noc(-c2cccs2)n1)C(C)(C)C)[C@H](O)C(=O)O` [Example 29, 3R-[2,2-Dimethyl-1S-(5-thiophen-2-yl-[1,2,4]oxadiazol-3-yl)-propylcarbamoyl]-2S-hydroxy-5-methyl-hexanoic Acid], the IC50 in assay [1] lay within 100 to 1000 nM; in assay [2], 1000 to 10000 nM; in assay [3], 1000 to 10000 nM.
With `CCOc1ccc(CCC[C@@H](C(=O)N[C@H](c2noc(-c3cccs3)n2)C(C)(C)C)[C@H](O)C(=O)NO)cc1` [Example 3], the half-maximal inhibitory concentration (IC50) in assay [1] was less than 100 nM; in assay [2], less than 100 nM; in assay [3] it was greater than 10000 nM.
Take `CC(C)C[C@@H](C(=O)N[C@H](c1noc(C(C)(C)C)n1)C(C)(C)C)[C@H](O)C(=O)NO` [Example 12, 2S-Hydroxy-3R-[1S-(5-tert-butyl-[1,2,4]oxadiazol-3-yl)-2,2-dimethyl-propylcarbamoyl]-5-methyl Hexanohydroxamic Acid]: the IC50 in assay [1] is less than 100 nM; in assay [2] it was 100 to 1000 nM; in assay [3], 100 to 1000 nM.

Source of the values: US20100035943A1, “Oxa-and thiadiazoles and their use as metalloproteinase inhibitors” (VERNALIS (OXFORD) LTD, priority 2002, published 2010).
